US20140073637A1, “AMINO-SUBSTITUTED-ALKYLOXY-BENZO[E]PYRIDO[4,3-B]INDOLE DERIVATIVES AS NEW POTENT KINASE INHIBITORS” (INSTITUT CURIE, priority 2011, published 2014)

What was measured:
CAMKKb = CAMKKb (Homo sapiens, UniProt Q96RR4); assay: Kinase profiling in vitro at 1 μM; format: biochemical; conditions: 1 microMolar in vitro, read-out: Percent of remaining activity
Procedure: (§1) The specificity of C14 was tested, in vitro, against 121 kinases representative of the kinome. Assays run in duplicate, at the concentration of 1 μM, were performed by MRC (Dundee, UK). Results are represented in FIG. 1. The main targets are highlighted in FIG. 1B. The profiling was performed at the MRC (Dundee University), in duplicate, on a set of 121 kinases. The panel is representative of the major different classes of kinases. Compounds were used at the concentration of 1 μM. In vitro, IC50 were determined on recombinant kinases by Reaction biology Corp (USA).

FGFR1 = FGFR1 (Homo sapiens, UniProt P11362); assay: Kinase profiling in vitro at 1 μM; format: biochemical; conditions: 1 microMolar in vitro, read-out: Percent of remaining activity
FGFR1, sequence (P11362 22-822, species assumed): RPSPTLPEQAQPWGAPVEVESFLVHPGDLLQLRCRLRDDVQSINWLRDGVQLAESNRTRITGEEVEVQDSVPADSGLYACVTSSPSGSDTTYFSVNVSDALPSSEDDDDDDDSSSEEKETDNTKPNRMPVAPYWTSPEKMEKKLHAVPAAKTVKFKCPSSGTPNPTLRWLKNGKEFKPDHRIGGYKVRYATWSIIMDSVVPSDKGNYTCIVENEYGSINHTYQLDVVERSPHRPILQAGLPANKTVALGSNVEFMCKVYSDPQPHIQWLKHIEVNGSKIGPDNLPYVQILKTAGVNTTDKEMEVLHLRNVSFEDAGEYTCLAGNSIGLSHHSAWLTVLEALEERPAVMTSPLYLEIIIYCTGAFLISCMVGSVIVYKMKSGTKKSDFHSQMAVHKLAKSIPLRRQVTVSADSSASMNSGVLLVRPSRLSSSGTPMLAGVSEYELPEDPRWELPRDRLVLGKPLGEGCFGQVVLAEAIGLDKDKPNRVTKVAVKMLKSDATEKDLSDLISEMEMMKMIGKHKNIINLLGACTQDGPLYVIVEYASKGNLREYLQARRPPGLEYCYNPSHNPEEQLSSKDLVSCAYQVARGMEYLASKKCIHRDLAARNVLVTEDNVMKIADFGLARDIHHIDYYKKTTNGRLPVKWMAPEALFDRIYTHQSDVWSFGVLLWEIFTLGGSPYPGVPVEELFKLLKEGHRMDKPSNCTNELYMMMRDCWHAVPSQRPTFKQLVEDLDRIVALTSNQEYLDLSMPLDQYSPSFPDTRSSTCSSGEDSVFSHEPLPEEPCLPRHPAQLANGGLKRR
Procedure: as §1

IR = IR (Homo sapiens, UniProt P06213); assay: Kinase profiling in vitro at 1 μM; format: biochemical; conditions: 1 microMolar in vitro, read-out: Percent of remaining activity
Procedure: as §1

IRAK4 = IRAK4 (Homo sapiens, UniProt Q9NWZ3); assay: Kinase profiling in vitro at 1 μM; format: biochemical; conditions: 1 microMolar in vitro, read-out: Percent of remaining activity
IRAK4, sequence (Q9NWZ3 whole entry, species assumed): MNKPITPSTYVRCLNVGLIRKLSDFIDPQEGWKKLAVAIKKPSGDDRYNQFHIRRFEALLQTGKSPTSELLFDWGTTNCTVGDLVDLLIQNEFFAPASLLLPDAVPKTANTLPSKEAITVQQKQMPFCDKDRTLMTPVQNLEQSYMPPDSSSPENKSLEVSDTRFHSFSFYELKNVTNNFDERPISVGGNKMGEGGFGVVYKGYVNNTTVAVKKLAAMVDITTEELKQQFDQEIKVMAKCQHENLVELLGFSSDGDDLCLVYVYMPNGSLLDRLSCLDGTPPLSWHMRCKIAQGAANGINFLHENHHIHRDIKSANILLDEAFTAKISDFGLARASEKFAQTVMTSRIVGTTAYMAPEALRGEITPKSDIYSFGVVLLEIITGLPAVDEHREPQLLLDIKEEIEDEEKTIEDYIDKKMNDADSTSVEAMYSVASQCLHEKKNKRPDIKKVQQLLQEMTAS
Procedure: as §1

Jak2 = Jak2 (Homo sapiens, UniProt O60674); assay: Kinase profiling in vitro at 1 μM; format: biochemical; conditions: 1 microMolar in vitro, read-out: Percent of remaining activity
Jak2, sequence (O60674 whole entry, species assumed): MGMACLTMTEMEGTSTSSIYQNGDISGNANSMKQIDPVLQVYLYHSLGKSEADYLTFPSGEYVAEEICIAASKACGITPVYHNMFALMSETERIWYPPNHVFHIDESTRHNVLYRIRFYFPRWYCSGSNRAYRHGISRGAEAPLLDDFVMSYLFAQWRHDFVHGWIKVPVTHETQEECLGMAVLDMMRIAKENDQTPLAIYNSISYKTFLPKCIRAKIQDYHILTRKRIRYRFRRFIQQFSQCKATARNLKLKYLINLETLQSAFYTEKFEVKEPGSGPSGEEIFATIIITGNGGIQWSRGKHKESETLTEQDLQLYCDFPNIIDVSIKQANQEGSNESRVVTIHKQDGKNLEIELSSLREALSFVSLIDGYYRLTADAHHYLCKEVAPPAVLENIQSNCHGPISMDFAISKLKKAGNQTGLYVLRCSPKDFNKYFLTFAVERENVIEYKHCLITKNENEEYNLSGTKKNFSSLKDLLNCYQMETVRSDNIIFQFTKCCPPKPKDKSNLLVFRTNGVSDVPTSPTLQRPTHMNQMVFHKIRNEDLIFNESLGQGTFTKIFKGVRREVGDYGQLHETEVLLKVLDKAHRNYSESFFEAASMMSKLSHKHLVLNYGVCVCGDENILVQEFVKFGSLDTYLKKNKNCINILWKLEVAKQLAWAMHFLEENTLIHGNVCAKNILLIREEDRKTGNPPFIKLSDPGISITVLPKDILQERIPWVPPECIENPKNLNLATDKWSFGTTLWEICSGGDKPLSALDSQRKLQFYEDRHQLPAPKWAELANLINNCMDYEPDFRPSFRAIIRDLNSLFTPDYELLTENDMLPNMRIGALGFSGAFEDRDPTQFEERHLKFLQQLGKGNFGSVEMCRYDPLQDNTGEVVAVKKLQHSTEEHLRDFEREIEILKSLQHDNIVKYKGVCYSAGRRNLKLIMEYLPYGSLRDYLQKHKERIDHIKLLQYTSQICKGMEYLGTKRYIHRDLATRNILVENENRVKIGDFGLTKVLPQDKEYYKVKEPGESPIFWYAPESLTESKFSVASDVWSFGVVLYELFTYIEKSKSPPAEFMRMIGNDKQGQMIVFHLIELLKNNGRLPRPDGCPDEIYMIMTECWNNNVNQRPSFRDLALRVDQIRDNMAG
Procedure: as §1

MELK = MELK (Homo sapiens, UniProt Q14680); assay: Kinase profiling in vitro at 1 μM; format: biochemical; conditions: 1 microMolar in vitro, read-out: Percent of remaining activity
MELK, sequence (Q14680 whole entry, species assumed): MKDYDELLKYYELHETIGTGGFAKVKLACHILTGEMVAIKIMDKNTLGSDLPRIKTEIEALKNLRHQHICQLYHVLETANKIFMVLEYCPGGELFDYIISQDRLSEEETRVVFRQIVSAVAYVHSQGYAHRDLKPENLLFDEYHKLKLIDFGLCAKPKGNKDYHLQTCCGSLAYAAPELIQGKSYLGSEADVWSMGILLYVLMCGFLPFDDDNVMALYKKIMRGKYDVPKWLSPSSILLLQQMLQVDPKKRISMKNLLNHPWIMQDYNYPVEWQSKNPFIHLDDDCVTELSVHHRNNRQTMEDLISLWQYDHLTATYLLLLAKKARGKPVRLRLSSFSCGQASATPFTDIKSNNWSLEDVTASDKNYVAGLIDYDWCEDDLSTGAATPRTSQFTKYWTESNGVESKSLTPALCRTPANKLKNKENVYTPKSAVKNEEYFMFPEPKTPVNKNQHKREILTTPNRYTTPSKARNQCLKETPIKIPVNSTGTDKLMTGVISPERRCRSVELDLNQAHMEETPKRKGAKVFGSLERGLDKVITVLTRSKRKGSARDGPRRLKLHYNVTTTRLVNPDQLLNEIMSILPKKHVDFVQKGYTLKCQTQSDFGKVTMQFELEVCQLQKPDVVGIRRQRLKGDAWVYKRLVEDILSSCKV
Procedure: as §1

NUAK1 [1] = target: T1, NUAK1 (Homo sapiens, UniProt O60285); assay: Kinase profiling in vitro at 1 μM; format: biochemical; conditions: 1 microMolar in vitro, read-out: Percent of remaining activity
T1 construct: Reaction biology Corp (USA), service
T1 sequence (O60285 1-661): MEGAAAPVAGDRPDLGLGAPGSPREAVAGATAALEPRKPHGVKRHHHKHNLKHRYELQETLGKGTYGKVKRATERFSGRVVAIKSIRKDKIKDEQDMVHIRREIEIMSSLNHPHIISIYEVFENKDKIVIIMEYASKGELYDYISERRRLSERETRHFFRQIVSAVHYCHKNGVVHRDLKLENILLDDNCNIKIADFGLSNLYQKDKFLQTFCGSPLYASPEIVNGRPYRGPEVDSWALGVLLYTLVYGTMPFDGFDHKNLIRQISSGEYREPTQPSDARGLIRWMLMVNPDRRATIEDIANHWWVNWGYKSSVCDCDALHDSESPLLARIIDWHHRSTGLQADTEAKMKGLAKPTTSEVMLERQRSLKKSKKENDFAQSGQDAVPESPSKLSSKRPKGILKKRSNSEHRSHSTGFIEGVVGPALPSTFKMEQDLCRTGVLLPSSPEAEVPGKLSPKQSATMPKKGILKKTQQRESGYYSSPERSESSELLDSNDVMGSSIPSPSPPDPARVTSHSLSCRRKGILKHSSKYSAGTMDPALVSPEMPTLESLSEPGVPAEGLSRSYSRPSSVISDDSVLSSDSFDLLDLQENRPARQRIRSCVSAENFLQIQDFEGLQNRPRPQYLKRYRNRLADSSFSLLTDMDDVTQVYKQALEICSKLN
Procedure: as §1

STK33 = STK33 (Homo sapiens, UniProt Q9BYT3); assay: Kinase profiling in vitro at 1 μM; format: biochemical; conditions: 1 microMolar in vitro, read-out: Percent of remaining activity
STK33, sequence (Q9BYT3 whole entry, species assumed): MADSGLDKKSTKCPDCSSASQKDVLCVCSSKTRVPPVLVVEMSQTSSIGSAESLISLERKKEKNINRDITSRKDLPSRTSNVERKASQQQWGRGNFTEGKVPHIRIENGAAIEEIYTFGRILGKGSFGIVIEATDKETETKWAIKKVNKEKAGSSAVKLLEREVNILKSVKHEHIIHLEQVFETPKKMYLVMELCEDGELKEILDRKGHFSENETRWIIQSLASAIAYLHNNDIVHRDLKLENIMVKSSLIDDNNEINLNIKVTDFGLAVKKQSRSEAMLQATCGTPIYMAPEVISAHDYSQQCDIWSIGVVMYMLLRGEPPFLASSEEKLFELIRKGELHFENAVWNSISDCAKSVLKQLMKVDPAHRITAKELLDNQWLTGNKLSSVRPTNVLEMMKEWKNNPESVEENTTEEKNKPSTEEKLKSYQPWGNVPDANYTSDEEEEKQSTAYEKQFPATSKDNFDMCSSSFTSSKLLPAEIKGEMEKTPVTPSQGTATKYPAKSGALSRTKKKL
Procedure: as §1

Tak1 = Tak1 (Homo sapiens, UniProt O43318); assay: Kinase profiling in vitro at 1 μM; format: biochemical; conditions: 1 microMolar in vitro, read-out: Percent of remaining activity
Tak1, sequence (O43318 1-303 limits assumed): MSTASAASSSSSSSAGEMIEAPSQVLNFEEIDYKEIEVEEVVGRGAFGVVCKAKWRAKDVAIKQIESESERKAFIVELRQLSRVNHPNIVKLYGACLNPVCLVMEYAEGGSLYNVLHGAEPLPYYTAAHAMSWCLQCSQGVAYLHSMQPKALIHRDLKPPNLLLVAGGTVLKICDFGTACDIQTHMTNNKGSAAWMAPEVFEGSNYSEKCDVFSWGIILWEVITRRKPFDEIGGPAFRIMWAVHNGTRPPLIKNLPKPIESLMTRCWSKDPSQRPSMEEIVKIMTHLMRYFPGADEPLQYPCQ
Tak1, sequence (Q15750 437-504 partner limits assumed): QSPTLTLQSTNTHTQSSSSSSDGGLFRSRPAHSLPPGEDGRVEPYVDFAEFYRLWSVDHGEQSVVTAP
Procedure: as §1

TrkA = TrkA (Homo sapiens, UniProt P04629); assay: Kinase profiling in vitro at 1 μM; format: biochemical; conditions: 1 microMolar in vitro, read-out: Percent of remaining activity
TrkA, sequence (P04629 33-796, species assumed): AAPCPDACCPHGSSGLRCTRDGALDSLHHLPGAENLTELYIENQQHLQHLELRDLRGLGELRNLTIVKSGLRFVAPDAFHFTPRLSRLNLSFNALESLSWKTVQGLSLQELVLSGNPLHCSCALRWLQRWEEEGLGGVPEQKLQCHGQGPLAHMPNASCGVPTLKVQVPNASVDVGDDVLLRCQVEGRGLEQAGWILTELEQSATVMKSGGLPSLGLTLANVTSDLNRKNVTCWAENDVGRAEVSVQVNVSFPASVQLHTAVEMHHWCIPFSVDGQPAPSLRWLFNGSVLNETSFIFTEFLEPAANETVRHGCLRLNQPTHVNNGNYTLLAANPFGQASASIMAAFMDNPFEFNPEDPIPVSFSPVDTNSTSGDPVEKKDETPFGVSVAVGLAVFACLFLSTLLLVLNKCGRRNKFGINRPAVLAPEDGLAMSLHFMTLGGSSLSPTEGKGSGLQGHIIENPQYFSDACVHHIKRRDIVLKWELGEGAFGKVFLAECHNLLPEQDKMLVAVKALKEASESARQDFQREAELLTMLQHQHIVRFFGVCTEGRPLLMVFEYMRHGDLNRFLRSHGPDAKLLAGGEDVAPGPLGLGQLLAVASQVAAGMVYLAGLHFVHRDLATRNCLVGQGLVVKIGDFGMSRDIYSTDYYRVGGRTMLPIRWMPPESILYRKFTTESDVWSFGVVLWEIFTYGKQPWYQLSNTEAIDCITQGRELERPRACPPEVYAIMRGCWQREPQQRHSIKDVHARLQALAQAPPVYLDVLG
Procedure: as §1

VEGFR = assay: Kinase profiling in vitro at 1 μM; format: biochemical; conditions: 1 microMolar in vitro
Procedure: as §1

Quiescent H358 cells = assay: Viability of quiescent (serum-deprived) cells; format: cell-based; conditions: 0.5 μM, 96 hours post-treatment, absence of serum
Procedure: FIG. 5: Quiescent H358 cells were incubated with the compound, for 96 h, in the absence of serum. Three different concentrations of C14 were used and live cells were estimated with MTT (Promega). In the control only DMSO was added.
H358 cells were deprived in serum for 2 days and then incubated with the compound, for 96 h, still in the absence of serum. At the concentration (0.5 μM) that induced death of more than 50% of cycling cells, 90% of the cells are still alive 96 hours post-treatment (FIG. 5). C14 is thus not deleterious for quiescent cells.
Cells were drawn to quiescence by serum withdrawn. After two days of serum deprivations cells were incubated with different concentrations of compounds for 96 hours, serum being still omitted. The viability is determined as described above.

H358 spheroids = assay: Multicellular tumour spheroid (MTS) growth; format: cell-based
Procedure: H358 cells were cultured in 3-Dimensions. At day 1, the compound was added at the concentration of 0.6 μM. The spheroid growth was measured each day and expressed as a growth ratio (Vd−Vo/Vo); d for day and o for the starting day. The evolution of the volume of the spheroids is expressed in function of the time (in days). Spheroids grown in the presence of C1 are indicated by triangles whereas rectangles indicate spheroids treated by C14; control spheroids are visualized by diamonds.
In order to get some insight in C14 effects towards organized cells, the inventors have followed H358 spheroid expansion (FIG. 9). Organized 3-dimension spheroids were treated by either C14 (0.5 μM) or C1 (0.5 μM) or DMSO (control). […] C14 was thus found efficient to prevent cell growth even when cells mimicked tissue organization.
The inventors applied the hanging-drop method to produce H358 spheroids of similar diameters. 1400 cells were suspended on the lid of an agar coated 24-petri dishes containing culture medium. 48 h later, the spheroids were transferred to the culture medium. Spheroid volumes were measured before (Day 0) and during the drug treatment (Day N). H358 spheroids were treated by compounds at the concentration of 0.6 μM. Control H358 spheroids were grown under the same conditions without drug treatment. The size of each spheroid was determined by measuring 2 diameters (d1 and d2) using an inverted microscope. The volume was calculated according to the formula: V=4/3π^3 where r=½√d1xd2. Spheroid growth was calculated by measuring the variations in volume and compared to the initial volume V0. The growth ratio was defined as (Vd−Vo)/Vo. Data are the mean of at least three determinations on different spheroids.

NUAK1 [2] = target: T1, NUAK1; assay: In vitro IC50 on recombinant kinase; format: biochemical
Procedure: The efficiency of the 3-amino-ethoxy compounds to inhibit Nuak1 was determined in vitro.
The profiling was performed at the MRC (Dundee University), in duplicate, on a set of 121 kinases. The panel is representative of the major different classes of kinases. Compounds were used at the concentration of 1 μM. In vitro, IC50 were determined on recombinant kinases by Reaction biology Corp (USA).

Water solubility = format: physicochemical

With `Cc1c[nH]c(=O)c2c1[nH]c1ccc3cc(OCCN(C)C)ccc3c12` [Compound C14, 3-(2-N,N-Dimethylaminoethoxy)-8-methyl-7H,10H-benzo[e]pyrido(4,3-b)indol-11-one] as the molecule, how does the remaining activity at 1 µM (CAMKKb) read?
The remaining activity at 1 µM was 22%.

And the remaining activity at 1 µM (FGFR1)?
The remaining activity at 1 µM was 24%.

What about the remaining activity at 1 µM (IR) of the same molecule?
Its remaining activity at 1 µM is 15%.

And the remaining activity at 1 µM (IRAK4)?
The remaining activity at 1 µM was 25%.

What about the remaining activity at 1 µM (Jak2) of the same molecule?
The remaining activity at 1 µM was 21%.

And the remaining activity at 1 µM (MELK)?
Its remaining activity at 1 µM is 31%.

And the remaining activity at 1 µM (NUAK1 [1])?
Its remaining activity at 1 µM is 4%.

And the remaining activity at 1 µM (STK33)?
Its remaining activity at 1 µM is 31%.

What about the remaining activity at 1 µM (Tak1) of the same molecule?
The remaining activity at 1 µM was 6%.

And the remaining activity at 1 µM (TrkA)?
The remaining activity at 1 µM was 5%.

What about the “Percent of remaining activity” value (VEGFR) of the same molecule?
Its value is 16%.

What about the cells still alive (Quiescent H358 cells) of the same molecule?
The cells still alive was 90%.

What about the “duration of effect on spheroid growth” value (H358 spheroids; 0.5 μM, 0.6 μM) of the same molecule?
The value was “at least 5 days”.

And the “effect on 3D-H358 cell (spheroid) growth (in words)” value (H358 spheroids; 0.5 μM, 0.6 μM)?
The value was “affected significantly”.

And the “spheroid size at day 10 (in words)” value (H358 spheroids; day 10, compared with C1-treated spheroids)?
Its value is “smaller than their counterparts treated by C1”.

And the IC50 (NUAK1 [2])?
The IC50 was 1.4 nM.

What about the “solubility in water (in words)” value (Water solubility) of the same molecule?
The value was “water soluble”.
